We go through two molecules from patent US20210155990A1, “NF-KB REGULATED GENE EXPRESSION ASSAY FOR ASSESSING EFFICACY OF MALT1 INHIBITORS” (Janssen Pharmaceutica NV, priority 2019, published 2021).

The subject of data set [1] is IL2, an NF-κB regulated gene. Kind of data set: IL2 expression in purified T-cells and PBMCs from NHL blood (Example 8). Type of data set: cell-based, human. The settings on record: T-cells and PBMC from NHL blood; 24 hours; anti-CD3/CD28 six hours. Here is the method:
The effect of a MALT inhibitor was analyzed utilizing gene expression signatures from purified T-cells and PBMCs from Non-Hodgkin's lymphoma patients. Peripheral blood was collected from five NHL patients, and the peripheral blood was allowed to stand overnight. Then, the peripheral blood was treated for 24 hours with a MALT inhibitor or DMSO control. The blood was then stimulated with monoclonal antibodies against CD3 and CD28 for six hours. Prior to stimulation and following stimulation, PBMC were purified from the treated blood using a ficoll density gradient and T-cells were purified using CD3 Beads (Miltenyi) using the manufacturers protocol. Purified cells were lysed in RLTplus (Qiagen) and RNA was extracted from the purified cells using an AllPrepkit (Qiagen). Gene expression was measured using 100 ng of RNA in the Pan-Cancer Immune Profiling kit (NanoString) according to the manufacturer's instructions.

The nature of data set [2]: Oral bioavailability (description).
Data set [3] relates to MALT1 regulated gene expression in NHL whole blood. The settings on record: 200 μM 24 h, anti-CD3/CD28 four hours.
Method: (§4) Peripheral blood was collected from three NHL and two CLL patients. […] Prior to stimulation and following stimulation, the treated blood was transferred into a PAXgene tube (Qiagen; Hilden, Germany) and RNA was extracted using the PAXgene RNA kit. Gene expression was measured using 100 ng of RNA extracted from the whole blood in the Pan-Cancer Immune Profiling kit (NanoString; Seattle, Wash.) according to the manufacturer's instructions.
Data set [4] has as its system T cells (CD4+ and CD8+) in NHL blood. Briefly: CD69 expression on T cells, NHL peripheral whole blood, anti-CD3/anti-CD28 stimulation (IFC). Type of data set: cell-based, human. The settings on record: 200 μM overnight, anti-CD3/anti-CD28 6 hours. The procedure: (§1) Both tubes were mixed well. The treated blood mixture was transferred at 3 mL per well to a 6-well polystyrene culture plate (Falcon, cat. #353046) and incubated overnight in a humidified incubator at 37° C. with 5% CO2.
(§2) The solution was mixed by pipetting with a 1 mL pipette. The plates were incubated in a humidified incubator at 37° C. with 5% CO2 for an additional 6 hours.
(§3) The next day, blood was treated with anti-CD3 and anti-CD28 stimulatory antibodies for 6 hours as described in Example 1 or left untreated. After treatment with the stimulatory antibodies, the red blood cells were lysed using multi-species lysis buffer, and the white blood cells were stained with anti-CD4 and anti-CD8 antibodies to label T cells and an anti-CD69 antibody to measure early T cell activation. Frequency of CD69-positive T cells (CD4+ and CD8+) was measured by IFC.

Data set [5] deals with MALT1 regulated gene expression in CLL whole blood. The settings on record: 200 μM 24 h, anti-CD3/CD28 four hours.
Method: as §4
The subject of data set [6] is NF-κB (p50) nuclear translocation in T cells. Kind of data set: NF-kB nuclear translocation in T cells from NHL whole blood by imaging flow cytometry (Example 4). Type of data set: cell-based, human. Here is the method:
as §2
Frozen or fresh cells treated with the experimental conditions were obtained. For example, T cells in blood samples could be activated and the PBMCs containing the activated T cells could be isolated using the method described in Example 1. Alternatively, PBMCs in blood samples could be activated and subject to the imaging flow cytometry analysis directly without isolation. If the samples were whole blood, a minimum of 1 mL of blood was used for each test in this experiment. However, less than 1 mL whole blood can also be used in the assay. […]
The samples were imaged on an AMNIS® […]® X Mark II imaging flow cytometer (MilliporeSigma, Burlington, Mass.) immediately, using 60× magnification, and the data was analyzed in IDEAS software using an internalization module, e.g., to evaluate frequency of CD4+ and CD8+ T cells or CLL cells with nuclear enrichment of p50.
The next day, the mixture samples were treated with anti-CD3 and anti-CD28 stimulatory antibodies following a procedure as that described in Example 1. […] Samples were analyzed on ImageStreamX to evaluate NF-κB nuclear localization in the CD4 and the CD8 positive T cells.
For orientation: Flow cytometry measures light scatter and fluorescence of single cells or particles in a stream.

Data set [7] relates to MALT1 regulated gene expression in NHL whole blood. The following applies: 100 μM 2 h, PMA-stimulated samples.
Method: Then, aliquots were stimulated with CD3 and CD28 antibodies (1 ug/ml each), PMA (20 ng/ml) and Ionomycin (1 μg/mL), or unstimulated (PBS) for four hours. Following stimulation, the treated blood was transferred into a PAXgene tube (Qiagen; Hilden, Germany) and RNA was extracted using the PAXgene RNA kit.
Gene expression was measured using 100 ng of RNA extracted from the whole blood in the Pan-Cancer Immune Profiling kit (NanoString; Seattle, Wash.) according to the manufacturer's instructions. Gene expression was normalized across samples using NanoString nSolver software. […] Briefly, log2-scaled, normalized NanoString counts were fit to a linear model (which incorporated the patient of origin) and moderated t-statistics, along with the associated Benjamini-Hochberg (BH) corrected p-values, were computed by empirical Bayes moderation of the standard errors towards a common value.
The subject of data set [8] is NF-κB2, TNFSF10, APOE, PYCARD expression. Briefly: Gene expression in T-cells and PBMCs purified from NHL blood without stimulation (Example 9). Type of data set: cell-based, human. The following applies: no stimulation, 24 hours. The procedure:
Peripheral blood was collected from five NHL patients, and the peripheral blood was allowed to stand overnight. Then, the peripheral blood was treated for 24 hours with a MALT inhibitor or DMSO control. PBMCs were purified from the unstimulated blood using a ficoll density gradient and T-cells were purified using CD3 Beads (Miltenyi) using the manufacturers protocol. Purified cells were lysed in RLTplus (Qiagen) and RNA was extracted from the purified cells using an AllPrep kit (Qiagen). Gene expression was measured using 100 ng of RNA in the Pan-Cancer Immune Profiling kit (NanoString) according to the manufacturer's instructions. Gene expression signatures were compared between the MALT inhibitor treated and DMSO treated samples.

Data set [9] relates to NF-κB (p50) nuclear translocation in B (CLL) cells. Kind of data set: NF-κB nuclear translocation in B cells from CLL PBMCs, anti-IgM 6 hours (Example 6). Type of data set: cell-based, human. The following applies: CLL PBMC, overnight compound. Here is the method:
Cells were then treated with anti-IgM or left untreated for 6 hours. After stimulation, PBMC were fixed using CytoFix buffer and permeabilized using 0.1% Triton X-100 solution. Cells were then stained with anti-CD19 to label B (CLL) cells, anti-CD4 and anti-CD8 to label T cells, Hoechst 33342 to label nuclei, and anti-p105/p50 to label NF-kB subunit. Samples were analyzed on ImageStreamX to evaluate NF-kB nuclear localization in B cells or T cells. […] Statistical significance was determined using Student's t-test in Microsoft Excel.

The subject of data set [10] is proteases, caspases, protein kinases, and G-protein-coupled receptors. Briefly: Binding inhibition panel at single dose. The following applies: single dose of either 1 μM or 10 μM.
The test system of data set [11] is NF-κB (p50) nuclear translocation in CD19-positive B (CLL) cells. Briefly: NF-κB nuclear translocation in B cells from CLL PBMCs, anti-IgM 30 minutes (Example 5). The class given is cell-based, human. The settings on record: 6 hours compound. The procedure: Alternatively, B cells can also be activated by beads coated with anti-IgM antibody. After the stimulation, PBMCs were fixed using CytoFix buffer and permeabilized using 0.1% Triton X-100 solution. Cells were then stained with anti-CD19 to label B (CLL) cells, Hoechst 33342 to label nuclei, and anti-p105/p50 to label NF-κB subunit. Samples were analyzed on ImageStreamX to evaluate NF-κB nuclear localization in the CD19-positive cells. […] Statistical significance was determined using Student's t-test in Microsoft Excel.

Data set [12] relates to DLBCL cell lines. Kind of data set: Growth of DLBCL cell lines in vitro (nonclinical studies). The class given is cell-based.
For data set [13], the system named is T cells (CD4+ and CD8+) in normal blood. Briefly: CD69 expression on T cells, normal peripheral whole blood, anti-CD3/anti-CD28 stimulation (IFC). The settings on record: 200 μM overnight, anti-CD3/anti-CD28 6 hours. Type of data set: cell-based, human. The procedure:
as §1, §2, §3

Data set [14] deals with NF-κB proteins (p50 and RelB) in CLL cells. The following applies: CLL cells treated in vitro; ELISA; cited from earlier work.

Usually IC50 stands for the concentration that inhibits the measured activity by half.

As for `O=C(Nc1ccnc(C(F)(F)F)c1)c1cnn(-c2cccc3c(=O)[nH]ccc23)c1C(F)(F)F` [Compound A, 1-(1-oxo-1,2 dihydroisoquinolin-5-yl)-5 (trifluoromethyl)-N-[2 (trifluoromethyl)pyridin-4 yl]-1H-pyrazole-4 carboxamide], the “stimulation induced upregulation of IL2” value in data set [1] is “repressed”. The oral bioavailability result in data set [2] is “orally bioavailable”. Moreover, the “stimulation induced upregulation of CXCL10” value in data set [3] is recorded as “repressed”. Further, the “surface expression of CD69 on T cells” value in data set [4] is on record as “significantly inhibited”. Also, in data set [5], the “stimulation induced upregulation of CXCL10” value is on record as “repressed”. Also, the “NFκB nuclear translocation in T cells (canonical NF-κB signaling)” value in [6] (CD3/CD28 stimulation, dosage dependent) is on record as “completely blocked”. Moreover, the IC50 in data set [6] (Homo sapiens, T-cell, overnight, CD3/CD28 stimulation 6 h, read-out: IC50, NFκB nuclear translocation in T cells) is approximately 9.5 µM. In addition, in [7], the “gene expression of ICOS, POU2F2, CCR4, and CTLA4” value was “downregulated”; the genes upregulated entry is reported as “no genes were significantly upregulated”. Also, in [8] (purified PBMCs), the APOE expression entry is on record as “repressed” and the PYCARD expression entry is recorded as “repressed”. In data set [8] (purified T-cells), the NF-κB2 expression entry is listed as “repressed” and the TNFSF10 expression entry is recorded as “repressed”. Further, the “NF-κB nuclear translocation in B cells activated by anti-IgM” value in data set [9] was “inhibited”. Moreover, the “binding inhibition of proteases, caspases, protein kinases, and G-protein-coupled receptors” value in data set [10] is “did not show significant binding inhibition”. In addition, the “NF-κB nuclear translocation in activated B cells” value in [11] is “inhibited”. In data set [12], the “growth of CD79b-mutant DLBCL cell lines” value is “inhibit growth” and the “growth of ibrutinib-resistant DLBCL cell lines harboring BTK C481S or CARD11 mutations” value is on record as “inhibit growth”. Further, in [13], the “surface expression of CD69 on CD4+ and CD8+ T cells” value was “not affected”.

As to `COCCOc1nc(-c2ccc(Cl)c(Cl)c2)n(-c2ccc(NC(=O)CCl)cc2)n1` [MI-2], the “nuclear translocation of NF-κB proteins (p50 and RelB)” value in data set [14] was “suppress”.
